# Laboratory results as given in patent publication US20250339399A1, “SUPRAMOLECULAR SELF-ASSEMBLY SYSTEM” (Beijing Creatron Institute of Pharmaceutical Research Co., …, priority 2022, published 2025).
# Where a name gives a salt, the structure may show the parent alone. Read-outs that look alike come from different tables or passages of the source.
# Assays:
# [1] = cited from earlier work
# [2] = Binary supramolecular self-assembly systems of polymer and target: guest concentration over incubation time (Comparative Example 2); format: physicochemical; conditions: for Concentration of guest molecule in solution / Times that of the initial medium: 6 h
# Method: Experiments were conducted according to the steps in Comparative Example 1, and quantitative analysis was carried out using the analytical method for each target to investigate the regulation ability […] stacking.
# [3] = Guest molecule concentration after incubation in initial medium without polymer (Comparative Example 1); format: physicochemical; conditions: for Concentration of guest molecule measured after different incubated time: 37° C.; for Concentration of guest molecule in solution: initial medium
# Method: (§1) pH 2.0 hydrochloric acid, pH 4.5 acetate, and pH 6.5, pH 6.8, or pH 7.4 phosphate buffer solutions were prepared. The selection of each initial medium followed the principle that the solubility in the initial medium of the selected targets (or active ingredients) should low enough, but should meet the detection sensitivity and accuracy requirements of the corresponding analytical methods. Each buffer as initial media was placed in a 50 ml test tube with a stopper, shaken in a constant temperature air shaker at 37° C.±0.5° C., with an amplitude of 200 rpm, and incubated for 1 hour. […] Samples were taken at 0.5 h, 3 h and 6 h after incubation, centrifuged at 37° C., 13000 rpm for 5 minutes, and the supernatant was diluted at least 10 times with the mobile phase under the target analyte analytical method, filtered, the initial filtrate was discarded, and the continued filtrate was used as the test solution for injection analysis. The corresponding HPLC method under each target object item in Table 8 was used to determine the content of each target substance. When the solubility of the target in the initial medium is below the quantitative limit of the analytical method, a small amount of surfactant, such as sodium dodecyl sulfate (SDS), Tween20, or Tween80, can be added appropriately.
# The above targets were incubated at 37° C.±0.5° C. for different time in an initial medium without any polymer. Each solid target formed by molecular stacking was removed by centrifugation, and the supernatant was analyzed using the HPLC method under each target item (see Table 8). The theoretical addition concentration of each target when its supramolecular self-assembly system was built was determined by its maximum dose in clinical use.
# [4] = Binary (carrier), ternary and quaternary supramolecular self-assembly systems of polymer, carrier building block and target: guest concentration over incubation time (Examples 1-56); format: physicochemical; conditions: for Times that of the initial medium / Concentration of guest molecule in solution: 6 h
# Method: as §1
# Experiments were conducted according to the steps in Comparative Example 1, and quantitative analysis was carried out using the analytical method for each target to investigate the regulation ability of each binary supramolecular self-assembly system built from 0.5% polymer and target on guest molecules stacking.
# Ternary supramolecular self-assembly systems based on different polymers, carrier building blocks, and targets were built according to the experimental scheme in Table 12, to investigate the influence of synergistic regulation of the carrier building blocks and the polymers on the stacking of target molecules, as well as the stability of the supramolecular self-assembly systems jointly built by them over incubation time. The initial medium, quantitative analysis method, pre-treatment method, and initial theoretical concentration of the target, corresponding to each target molecule in the experiment, were consistent with those in Comparative Examples 1 and 2. After a target was added to the system, the target was uniformly dispersed by ultrasonication at 37° C. for half an hour and then shaken in a 37° C. constant temperature air shaker, and samples were collected after different incubation time, i.e. 0.5 h, 1 h, 2 h, 3 h, 4 h, and 6 h.
# [5] = prost derivatives, Table 31 (relevant information)
# [6] = binary system with 0.5% polymer 102, incubation 0.5 h
# [7] = binary system with 0.5% polymer 102, incubation 3 h
# [8] = binary system with 0.5% polymer 102, incubation 6 h
# [9] = ternary: 0.25% 102M + 0.25% 301
# [10] = ternary: 0.25% 102M + 0.25% 302
# [11] = Cannabidiol derivatives, Table 30 (chemical structures)
structure (smiles),measurement,setting,value
"CCCCC(C)(O)C/C=C/[C@H]1[C@H](O)CC(=O)[C@@H]1CCCCCCC(=O)OC (mixture of isomers) [Misoprostol, misoprostol]",Log P,[1]; [5],Log P:3.86 D-H: 2 R-H:4
"CCCCC[C@H](O)/C=C/[C@H]1[C@H](O)CC(=O)[C@@H]1CCCCCCC(=O)O [Alprostadil, alprostadil]",Log P,[1]; [5],"Log P 3.58 H,3 R-H 5"
"CCCCC[C@](C)(O)/C=C/[C@@H]1[C@@H](C/C=C\CCCC(=O)O)[C@@H](O)C[C@H]1O [Carboprost, carboprost]",Log P,[1]; [5],Log P:2.89 D-H: 4 R-H: 5
COC(=O)[C@H](c1ccccc1Cl)N1CCc2sccc2C1 [Clopidogrel bisulfate],Concentration of guest molecule in solution,[2]; binary: 0.5% 103E3,64370 ng/mL
same,Concentration of guest molecule measured after different incubated time,"[3]; 0.5 h, pH 4.5 acetate buffer",48900 ng/mL
same,Concentration of guest molecule measured after different incubated time,"[3]; 3 h, pH 4.5 acetate buffer",39600 ng/mL
same,Concentration of guest molecule measured after different incubated time,"[3]; 6 h, pH 4.5 acetate buffer",52000 ng/mL
same,Concentration of guest molecule in solution,[3]; 6 h,51970 ng/mL
same,Times that of the initial medium,"[4]; quaternary: 0.25% 204 (102M+103E3) + 0.25% 302, 310, 314 or 318, range over the systems",13-17 times
"CCCCC(C)(C)[C@H](O)/C=C/[C@H]1[C@H](O)CC(=O)[C@@H]1CCCC/C=C/C(=O)OC [Gemeprost, gemeprost]",Log P,[1]; [5],Log P:4.71 D-H: 2 R-H:4
"O=C1C[C@@H]2[C@@H](CC[C@@H](O)CCc3ccccc3)[C@H](O)C[C@@H]2O1 [Latanoprost lactone diol, latanoprost lactone diol]",Log P,[1]; [5],Log P: 1.87 D-H: 2 R-H: 3
O=C1[C@@H]2[C@H]3CC[C@H](C3)[C@@H]2C(=O)N1C[C@@H]1CCCC[C@H]1CN1CCN(c2nsc3ccccc23)CC1 [Lurasidone hydrochloride],Concentration of guest molecule in solution,[2]; binary: 0.25% 101,32400 ng/mL
same,Concentration of guest molecule in solution,[2]; binary: 0.25% 102H,84400 ng/mL
same,Concentration of guest molecule measured after different incubated time,"[3]; 0.5 h, pH 6.8 phosphate buffer",7300 ng/mL
same,Concentration of guest molecule measured after different incubated time,"[3]; 3 h, pH 6.8 phosphate buffer",10700 ng/mL
same,Concentration of guest molecule measured after different incubated time,"[3]; 6 h, pH 6.8 phosphate buffer",3200 ng/mL
same,Concentration of guest molecule in solution,[4]; binary: 0.25% 312,71500 ng/mL
same,Concentration of guest molecule in solution,[4]; binary: 0.25% 314,56600 ng/mL
same,Times that of the initial medium,[4]; binary: 0.25% 314,81 times
same,Concentration of guest molecule in solution,[4]; binary: 0.5% 314,198800 ng/mL
same,Times that of the initial medium,[4]; binary: 0.5% 314,284 times
same,Concentration of guest molecule in solution,[4]; binary: 0.5% 319,2300 ng/mL
same,Concentration of guest molecule in solution,"[4]; ternary: 0.25% 102H + 312, carrier % not stated",122100 ng/mL
same,Concentration of guest molecule in solution,[4]; ternary: 0.25% 319 + 0.25% 101,11200 ng/mL
same,Concentration of guest molecule in solution,"[4]; ternary: 102H + 310, carrier % not stated",204900 ng/mL
same,Concentration of guest molecule in solution,"[4]; ternary: 102H + 313, carrier % not given",135700 ng/mL
same,Concentration of guest molecule in solution,"[4]; ternary: 102H + 318, carrier % not stated",141800 ng/mL
"CC1=C[C@H](O)CC(C)(C)[C@H]1/C=C/C(C)=C/C=C/C(C)=C/C=C/C=C(C)/C=C/C=C(C)/C=C/C1=C(C)C[C@@H](O)CC1(C)C [Lutein, lutein]",Concentration of the target in the solution measured after different incubation time,[2]; [6],16300 ng/mL
same,Concentration of the target in the solution measured after different incubation time,[2]; [7],16900 ng/mL
same,Concentration of the target in the solution measured after different incubation time,[2]; [8],16000 ng/mL
same,Concentration of guest molecule measured after different incubated time,"[3]; 0.5 h, pH 6.8 phosphate buffer",0 ng/mL
same,Concentration of guest molecule measured after different incubated time,"[3]; 3 h, pH 6.8 phosphate buffer",0 ng/mL
same,Concentration of guest molecule measured after different incubated time,"[3]; 6 h, pH 6.8 phosphate buffer",0 ng/mL
CCCSc1nc(N[C@@H]2C[C@H]2c2ccc(F)c(F)c2)c2nnn([C@@H]3C[C@H](OCCO)[C@@H](O)[C@H]3O)c2n1 [Ticagrelor],Concentration of the target in the solution measured after different incubation time,"[2]; binary system with 0.5% polymer 101, incubation 0.5 h",132500 ng/mL
same,Concentration of the target in the solution measured after different incubation time,"[2]; binary system with 0.5% polymer 101, incubation 3 h",47200 ng/mL
same,Concentration of the target in the solution measured after different incubation time,"[2]; binary system with 0.5% polymer 101, incubation 6 h",46600 ng/mL
same,Concentration of the target in the solution measured after different incubation time,[2]; [6],169800 ng/mL
same,Concentration of the target in the solution measured after different incubation time,[2]; [7],166000 ng/mL
same,Concentration of the target in the solution measured after different incubation time,[2]; [8],161400 ng/mL
same,Concentration of the target in the solution measured after different incubation time,"[2]; binary system with 0.5% polymer 103, incubation 0.5 h",19200 ng/mL
same,Concentration of the target in the solution measured after different incubation time,"[2]; binary system with 0.5% polymer 103, incubation 3 h",20400 ng/mL
same,Concentration of the target in the solution measured after different incubation time,"[2]; binary system with 0.5% polymer 103, incubation 6 h",17500 ng/mL
same,Concentration of the target in the solution measured after different incubation time,"[2]; binary system with 0.5% polymer 104, incubation 0.5 h",11900 ng/mL
same,Concentration of the target in the solution measured after different incubation time,"[2]; binary system with 0.5% polymer 104, incubation 3 h",9400 ng/mL
same,Concentration of the target in the solution measured after different incubation time,"[2]; binary system with 0.5% polymer 104, incubation 6 h",9100 ng/mL
same,Concentration of the target in the solution measured after different incubation time,"[2]; binary system with 0.5% polymer 106, incubation 0.5 h",16800 ng/mL
same,Concentration of the target in the solution measured after different incubation time,"[2]; binary system with 0.5% polymer 106, incubation 3 h",17400 ng/mL
same,Concentration of the target in the solution measured after different incubation time,"[2]; binary system with 0.5% polymer 106, incubation 6 h",17300 ng/mL
same,Concentration of the target in the solution measured after different incubation time,"[2]; binary system with 0.5% polymer 107, incubation 0.5 h",48300 ng/mL
same,Concentration of the target in the solution measured after different incubation time,"[2]; binary system with 0.5% polymer 107, incubation 3 h",52100 ng/mL
same,Concentration of the target in the solution measured after different incubation time,"[2]; binary system with 0.5% polymer 107, incubation 6 h",45500 ng/mL
same,Concentration of the target in the solution measured after different incubation time,"[2]; binary system with 0.5% polymer 110, incubation 0.5 h",17000 ng/mL
same,Concentration of the target in the solution measured after different incubation time,"[2]; binary system with 0.5% polymer 110, incubation 3 h",19200 ng/mL
same,Concentration of the target in the solution measured after different incubation time,"[2]; binary system with 0.5% polymer 110, incubation 6 h",19100 ng/mL
same,Concentration of guest molecule in solution,[2]; binary: 0.25% 102H,260200 ng/mL
same,Times that of the initial medium,[2]; binary: 0.25% 102H,approximately 14 times
same,Times that of the initial medium,[2]; binary: 0.25% 102M,about 6 times
same,Concentration of guest molecule measured after different incubated time,"[3]; 0.5 h, 0.05% SDS in pH 6.8 phosphate buffer",11700 ng/mL
same,Concentration of guest molecule measured after different incubated time,"[3]; 3 h, 0.05% SDS in pH 6.8 phosphate buffer",11900 ng/mL
same,Concentration of guest molecule measured after different incubated time,"[3]; 6 h, 0.05% SDS in pH 6.8 phosphate buffer",7800 ng/mL
same,Concentration of guest molecule in solution,[3]; 6 h,18400 ng/mL
same,Concentration of guest molecule in solution,[4]; [9],290800 ng/mL
same,Times that of the initial medium,[4]; [9],26 times
same,Concentration of guest molecule in solution,[4]; [10],107200 ng/mL
same,Times that of the initial medium,[4]; [10],9.7 times
same,Concentration of guest molecule in solution,[4]; ternary: 0.25% 102M + 0.5% 301,394000 ng/mL
same,Times that of the initial medium,[4]; ternary: 0.25% 102M + 0.5% 301,35 times
same,Times that of the initial medium,"[4]; ternary: 102M + 310, 312 or 313",29 times
same,Concentration of guest molecule in solution,[4]; ternary: 102M + 318,253700 ng/mL
"O=C(O)CCC/C=C\C[C@@H]1[C@@H](/C=C/[C@@H](O)COc2cccc(C(F)(F)F)c2)[C@H](O)C[C@@H]1O [Travoprost acid, travoprost acid]",Log P,[1]; [5],Log P:2.92 D-H: 4 R-H: 6
"CC(C)OC(=O)CCC/C=C\C[C@@H]1[C@@H](/C=C/[C@@H](O)COc2cccc(C(F)(F)F)c2)[C@H](O)C[C@@H]1O [Travoprost, travoprost]",Log P,[1]; [5],Log P:3.84 D-H: 3 R-H: 5
CC(=O)CC(c1ccccc1)c1c(O)c2ccccc2oc1=O (centres unmarked) [Warfarin],Encapsulation rate for the guest molecule,[4]; quaternary: 0.25% 207 (101+103E5) + 0.1% 320,~100%
"C=C(C)[C@@H]1CCC(C)=C[C@H]1c1c(O)cc(CCCCC)cc1O [compound 1, ((1′R,2′R)-5′-methyl-4-pentyl-2′-(prop-1-en-2-yl)-1′,2′,3′,4′-tetrahydro-[1,1′-biphenyl]-2,6-diol)]",Log P,[1]; [11],"Log P = 6.32, H-D:2,H-R = 2"
"C=C(C)[C@@H]1CCC(C)=C[C@H]1c1c(O)cc(C)cc1O [compound 2, ((1′R,2′R)-4,5′-dimethyl-2′-(prop-1-en-2-yl)-1′,2′,3′,4′-tetrahydro-[1,1′-biphenyl]-2,6-diol)]",Log P,[1]; [11],"Log P = 4.55, H-D:2,H-R = 2"
